The target in one assay is His-GST-PARP7 (Homo sapiens (Human), UniProt Q7Z3E1). The assay is described as follows: PARP7 biochemical assay. The following applies: read-out: PARP7 IC50.
A further assay has as its target PARP2 (Homo sapiens (Human), UniProt Q9UGN5). In words: PARP2 biochemical assay.
In assay [1] the test system is NCI-H1373 (human lung adenocarcinoma) cells. The assay is described as follows: Cell proliferation assay (CellTiter-Glo), NCI-H1373. The note with it: Homo sapiens, NCI-H1373, 144 h, read-out: NCI-H1373 GI50. Type of assay: cell-based. On the technique in general: ATP-based viability assays read luminescence as a measure of living cells.

Where two headings read alike, the source gives them in different places. Bounds are passed on as bounds.

His-GST-PARP7, sequence (Q7Z3E1 whole entry): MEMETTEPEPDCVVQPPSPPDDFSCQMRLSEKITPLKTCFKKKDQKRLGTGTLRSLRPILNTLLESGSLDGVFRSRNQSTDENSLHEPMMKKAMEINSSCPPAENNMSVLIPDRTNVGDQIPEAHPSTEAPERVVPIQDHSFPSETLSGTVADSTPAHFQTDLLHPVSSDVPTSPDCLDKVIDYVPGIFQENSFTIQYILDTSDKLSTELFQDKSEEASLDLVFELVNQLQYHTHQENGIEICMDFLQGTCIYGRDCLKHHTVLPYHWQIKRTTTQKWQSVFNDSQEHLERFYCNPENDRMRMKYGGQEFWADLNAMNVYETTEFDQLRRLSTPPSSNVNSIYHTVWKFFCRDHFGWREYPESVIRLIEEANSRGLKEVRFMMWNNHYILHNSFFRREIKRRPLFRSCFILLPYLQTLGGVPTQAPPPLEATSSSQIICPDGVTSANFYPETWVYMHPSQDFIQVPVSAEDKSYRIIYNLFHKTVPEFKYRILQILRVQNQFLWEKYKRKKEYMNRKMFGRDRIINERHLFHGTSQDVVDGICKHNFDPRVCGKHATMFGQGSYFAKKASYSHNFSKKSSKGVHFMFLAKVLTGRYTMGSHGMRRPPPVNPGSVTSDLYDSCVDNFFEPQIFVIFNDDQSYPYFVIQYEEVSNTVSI
PARP2, sequence (Q9UGN5 whole entry): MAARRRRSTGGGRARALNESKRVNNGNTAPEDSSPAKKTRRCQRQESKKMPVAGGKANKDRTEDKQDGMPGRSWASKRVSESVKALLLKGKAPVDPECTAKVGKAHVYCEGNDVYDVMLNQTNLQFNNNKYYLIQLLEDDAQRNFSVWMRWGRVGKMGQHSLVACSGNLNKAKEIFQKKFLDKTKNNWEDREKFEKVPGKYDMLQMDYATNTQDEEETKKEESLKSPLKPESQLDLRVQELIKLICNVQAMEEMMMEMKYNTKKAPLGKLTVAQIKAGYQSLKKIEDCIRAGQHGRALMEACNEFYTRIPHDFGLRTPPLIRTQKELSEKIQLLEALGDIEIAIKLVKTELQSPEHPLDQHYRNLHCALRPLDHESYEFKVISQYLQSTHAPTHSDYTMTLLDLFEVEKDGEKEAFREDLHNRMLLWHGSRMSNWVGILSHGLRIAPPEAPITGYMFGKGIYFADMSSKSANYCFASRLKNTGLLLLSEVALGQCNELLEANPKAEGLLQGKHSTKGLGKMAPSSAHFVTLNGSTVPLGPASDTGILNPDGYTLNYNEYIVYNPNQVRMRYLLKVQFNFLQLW

A word on the IC50: it is the midpoint of a concentration-inhibition curve. For orientation: GI50 means the concentration at which growth is held to half of that of the control. With `N#Cc1ccc(N2CCN(C(=O)c3cc(Cc4n[nH]c(=O)c5ccc(OC6CC6)cc45)ccc3F)CC2)nc1` [Example 13, 6-(4-(5-((7-Cyclopropoxy-4-oxo-3,4-dihydrophthalazin-1-yl)methyl)-2-fluorobenzoyl)piperazin-1-yl)nicotinonitrile], the IC50 on His-GST-PARP7 is below 0.05 µM; against PARP2, 0.1 to 0.5 µM. Also, the concentration for 50% growth inhibition (GI50) in assay [1] fell in the range of 0.1 to 1 µM.

In the case of `CNc1ccc2c(=O)[nH]nc(Cc3ccc(F)c(C(=O)N4CCN(c5ccc(C#N)cn5)CC4)c3)c2c1` [Example 16, 6-(4-(2-fluoro-5-((7-(methylamino)-4-oxo-3,4-dihydrophthalazin-1-yl)methyl)benzoyl)piperazin-1-yl)nicotinonitrile], the IC50 on His-GST-PARP7 and at PARP2 (read-out: PARP2 IC50) was below 0.05 µM each time. Moreover, in assay [1], the GI50 lay within 1 to 5 µM.

In the case of `N#Cc1ccc(N2CCN(C(=O)c3cc(Cc4n[nH]c(=O)c5ccc(N6CC(F)(F)C6)cc45)ccc3F)CC2)nc1` [Example 18, 6-(4-(5-((7-(3,3-Difluoroazetidin-1-yl)-4-oxo-3,4-dihydrophthalazin-1-yl)methyl)-2-fluorobenzoyl)piperazin-1-yl)nicotinonitrile], the IC50 was below 0.05 µM at His-GST-PARP7 and 0.1 to 0.5 µM at PARP2 (read-out: PARP2 IC50).

As for `N#Cc1ccc(N2CCN(C(=O)c3cc(Cc4n[nH]c(=O)c5ccc(NCC6CC6)cc45)ccc3F)CC2)nc1` [Example 20, 6-(4-(5-((7-(cyclopropylmethylamino)-4-oxo-3,4-dihydrophthalazin-1-yl)methyl)-2-fluorobenzoyl)piperazin-1-yl)nicotinonitrile], the IC50 at His-GST-PARP7 and at PARP2 (read-out: PARP2 IC50) was below 0.05 µM in each case. In addition, the GI50 in assay [1] (6 days, CellTiter-Glo) is 0.1 to 1 µM.

In the case of `N#Cc1ccc(N2CCN(C(=O)c3cc(Cc4n[nH]c(=O)c5ccc(N6CC7(CC(O)C7)C6)cc45)ccc3F)CC2)nc1` [Example 23, 6-(4-(2-Fluoro-5-((7-(6-hydroxy-2-azaspiro[3.3]heptan-2-yl)-4-oxo-3,4-dihydrophthalazin-1-yl)methyl)benzoyl)piperazin-1-yl)nicotinonitrile], the IC50 at His-GST-PARP7 was below 0.05 µM; on PARP2 (read-out: PARP2 IC50), 0.5 to 2 µM. Also, in assay [1] (6 days, CellTiter-Glo), the GI50 was above 5 µM.

As for `N#Cc1ccc(N2CCN(C(=O)c3cc(Cc4n[nH]c(=O)c5ccc(C#CC(F)(F)F)cc45)ccc3F)CC2)nc1` [Example 24, 6-(4-(2-Fluoro-5-((4-oxo-7-(3,3,3-trifluoroprop-1-ynyl)-3,4-dihydrophthalazin-1-yl)methyl)benzoyl)piperazin-1-yl)nicotinonitrile], the IC50 was below 0.05 µM on His-GST-PARP7 and 0.1 to 0.5 µM at PARP2 (read-out: PARP2 IC50).

As to `N#Cc1ccc(N2CCN(C(=O)c3cc(Cc4n[nH]c(=O)c5ccc(OC(F)(F)F)cc45)ccc3F)CC2)nc1` [Example 30, 6-(4-(2-fluoro-5-((4-oxo-7-(trifluoromethoxy)-3,4-dihydrophthalazin-1-yl)methyl)benzoyl)piperazin-1-yl)nicotinonitrile], the results for the half-inhibitory concentration (IC50) on His-GST-PARP7 and at PARP2 (read-out: PARP2 IC50) were below 0.05 µM and 0.1 to 0.5 µM, respectively. For the same compound, the 50% growth inhibitory concentration (GI50) in assay [1] (6 days, CellTiter-Glo) fell in the range of 0.1 to 1 µM.

In the case of `N#Cc1ccc(N2CCN(C(=O)c3cc(Cc4n[nH]c(=O)c5ccc(N6CC7(CCC7)C6)cc45)ccc3F)CC2)nc1` [Example 31, 6-(4-(2-Fluoro-5-((4-oxo-7-(2-azaspiro[3.3]heptan-2-yl)-3,4-dihydrophthalazin-1-yl)methyl)benzoyl)piperazin-1-yl)nicotinonitrile], the IC50 was below 0.05 µM at His-GST-PARP7 and above 2 µM at PARP2 (read-out: PARP2 IC50). In addition, the 50% growth inhibitory concentration (GI50) in assay [1] (6 days, CellTiter-Glo) is 0.1 to 1 µM.

As for `N#Cc1ccc(N2CCN(C(=O)c3cc(Cc4n[nH]c(=O)c5ccc(N6CC(C(F)(F)F)C6)cc45)ccc3F)CC2)nc1` [Example 34, 6-(4-(2-Fluoro-5-((4-oxo-7-(3-(trifluoromethyl)azetidin-1-yl)-3,4-dihydrophthalazin-1-yl)methyl)benzoyl)piperazin-1-yl)nicotinonitrile], the results for the IC50 on His-GST-PARP7 and at PARP2 (read-out: PARP2 IC50) were below 0.05 µM and 0.5 to 2 µM, respectively. For the same compound, the GI50 in assay [1] (6 days, CellTiter-Glo) is 0.1 to 1 µM.

With `CC(F)(F)c1ccc2c(=O)[nH]nc(Cc3ccc(F)c(C(=O)N4CCN(c5ccc(C#N)cn5)CC4)c3)c2c1` [Example 36, 6-(4-(5-((7-(1,1-Difluoroethyl)-4-oxo-3,4-dihydrophthalazin-1-yl)methyl)-2-fluorobenzoyl)piperazin-1-yl)nicotinonitrile], the IC50 at His-GST-PARP7 is 0.05 to 0.1 µM; at PARP2 (read-out: PARP2 IC50) it was below 0.05 µM. The GI50 in assay [1] (6 days, CellTiter-Glo) was in the range of 0.1 to 1 µM.

In the case of `N#Cc1ccc(N2CCN(C(=O)c3cc(Cc4n[nH]c(=O)c5ccc(C#CC6CC6)cc45)ccc3F)CC2)nc1` [Example 37, 6-(4-(5-((7-(Cyclopropylethynyl)-4-oxo-3,4-dihydrophthalazin-1-yl)methyl)-2-fluorobenzoyl)piperazin-1-yl)nicotinonitrile], the figures for the half-maximal inhibitory concentration (IC50) on His-GST-PARP7 and on PARP2 (read-out: PARP2 IC50) were 0.1 to 0.5 µM and 0.5 to 2 µM, respectively.

With `N#Cc1ccc(N2CCN(C(=O)c3cc(Cc4n[nH]c(=O)c5ccc(C6CC6)cc45)ccc3F)CC2)nc1` [Example 40, 6-(4-(5-((7-Cyclopropyl-4-oxo-3,4-dihydrophthalazin-1-yl)methyl)-2-fluorobenzoyl)piperazin-1-yl)nicotinonitrile], the IC50 is below 0.05 µM at His-GST-PARP7 and 0.1 to 0.5 µM at PARP2 (read-out: PARP2 IC50).

Consider `CC(C)(C)Cc1ccc2c(=O)[nH]nc(Cc3ccc(F)c(C(=O)N4CCN(c5ccc(C#N)cn5)CC4)c3)c2c1` [Example 41, 6-(4-(2-Fluoro-5-((7-neopentyl-4-oxo-3,4-dihydrophthalazin-1-yl)methyl)benzoyl)piperazin-1-yl)nicotinonitrile], for which the IC50 on His-GST-PARP7 and at PARP2 (read-out: PARP2 IC50) was 0.1 to 0.5 µM in each case.

As for `O=C(c1cc(Cc2n[nH]c(=O)c3ccc(C4CC4)cc23)ccc1F)N1CCN(c2ncc(C(F)(F)F)cn2)CC1` [Example 45, 6-Cyclopropyl-4-(4-fluoro-3-(4-(5-(trifluoromethyl)pyrimidin-2-yl)piperazine-1-carbonyl)benzyl)phthalazin-1(2H)-one], the IC50 is below 0.05 µM on His-GST-PARP7 and 0.1 to 0.5 µM at PARP2 (read-out: PARP2 IC50).

As for `CN(C)CC#Cc1ccc2c(=O)[nH]nc(Cc3ccc(F)c(C(=O)N4CCN(c5ncc(C(F)(F)F)cn5)CC4)c3)c2c1` [Example 46, 6-(3-(Dimethylamino)prop-1-yn-1-yl)-4-(4-fluoro-3-(4-(5-(trifluoromethyl)pyrimidin-2-yl)piperazine-1-carbonyl)benzyl)phthalazin-1(2H)-one], the IC50 on His-GST-PARP7 was below 0.05 µM; on PARP2 (read-out: PARP2 IC50), 0.1 to 0.5 µM.

`O=C(c1cc(Cc2n[nH]c(=O)c3ccc(C#CC4CC4)cc23)ccc1F)N1CCN(c2ncc(C(F)(F)F)cn2)CC1` [Example 47, 6-(Cyclopropylethynyl)-4-(4-fluoro-3-(4-(5-(trifluoromethyl)pyrimidin-2-yl)piperazine-1-carbonyl)benzyl)phthalazin-1(2H)-one]: the figures for the IC50 on His-GST-PARP7 and at PARP2 (read-out: PARP2 IC50) were 0.1 to 0.5 µM and 0.5 to 2 µM, respectively.

On to `O=C(c1cc(Cc2n[nH]c(=O)c3ccc(C#CC(F)(F)F)cc23)ccc1F)N1CCN(c2ncc(C(F)(F)F)cn2)CC1` [Example 49, 4-(4-Fluoro-3-(4-(5-(trifluoromethyl)pyrimidin-2-yl)piperazine-1-carbonyl)benzyl)-6-(3,3,3-trifluoroprop-1-yn-1-yl)phthalazin-1(2H)-one], for which the IC50 at His-GST-PARP7 and at PARP2 (read-out: PARP2 IC50) was 0.1 to 0.5 µM in each case.

With `CC#Cc1ccc2c(=O)[nH]nc(Cc3ccc(F)c(C(=O)N4CCN(c5ccc(C#N)cn5)CC4C)c3)c2c1` (stereo not shown) [Example 61, 6-(4-(2-Fluoro-5-((4-oxo-7-(prop-1-yn-1-yl)-3,4-dihydrophthalazin-1-yl)methyl)benzoyl)-3-methylpiperazin-1-yl)nicotinonitrile], the IC50 on His-GST-PARP7 and at PARP2 (read-out: PARP2 IC50) was below 0.05 µM each time.

Turning to `CC#Cc1ccc2c(=O)[nH]nc(Cc3ccc(F)c(C(=O)N4C5CCC4CN(c4ccc(C#N)cn4)C5)c3)c2c1` [Example 62, 6-(8-(2-Fluoro-5-((4-oxo-7-(prop-1-yn-1-yl)-3,4-dihydrophthalazin-1-yl)methyl)benzoyl)-3,8-diazabicyclo[3.2.1]octan-3-yl)nicotinonitrile], the IC50 on His-GST-PARP7 is below 0.05 µM; against PARP2, 0.5 to 2 µM.

With `CC#Cc1ccc2c(=O)[nH]nc(Cc3ccc(F)c(C(=O)N4CCN(c5ccc(C#N)cn5)C(C)C4)c3)c2c1` (stereo not shown) [Example 72, 6-(4-(2-Fluoro-5-((4-oxo-7-(prop-1-ynyl)-3,4-dihydrophthalazin-1-yl)methyl)benzoyl)-2-methylpiperazin-1-yl)nicotinonitrile], the IC50 on His-GST-PARP7 was below 0.05 µM; at PARP2 (read-out: PARP2 IC50), 0.1 to 0.5 µM.

As to `CC#Cc1ccc2c(=O)[nH]nc(Cc3cc(F)c(F)c(C(=O)N4CCN(c5ccc(C#N)cn5)CC4)c3)c2c1` [Example 74, 6-(4-(2,3-Difluoro-5-((4-oxo-7-(prop-1-ynyl)-3,4-dihydrophthalazin-1-yl)methyl)benzoyl)piperazin-1-yl)nicotinonitrile], the concentration for half-maximal inhibition (IC50) on His-GST-PARP7 is below 0.05 µM; on PARP2 (read-out: PARP2 IC50), 0.05 to 0.1 µM. Further, the GI50 in assay [1] (6 days, CellTiter-Glo) lay within 0.1 to 1 µM.

On to `CC#Cc1cc(Cl)c2c(=O)[nH]nc(Cc3ccc(F)c(C(=O)N4CCN(c5ccc(C#N)cn5)CC4)c3)c2c1` [Example 85, 6-(4-(5-((5-chloro-4-oxo-7-(prop-1-yn-1-yl)-3,4-dihydrophthalazin-1-yl)methyl)-2-fluorobenzoyl)piperazin-1-yl)nicotinonitrile], for which the half-maximal inhibitory concentration (IC50) at His-GST-PARP7 was 0.1 to 0.5 µM; at PARP2 (read-out: PARP2 IC50), 0.05 to 0.1 µM. For the same compound, in assay [1] (6 days, CellTiter-Glo), the concentration for 50% growth inhibition (GI50) is below 0.1 µM.

`CC#Cc1ccc2c(=O)[nH]nc(Cc3ccc(F)c(C(=O)NCCN(CC)c4ccc(C#N)cn4)c3)c2c1` [Example 197, N-(2-((5-cyanopyridin-2-yl)(ethyl)amino)ethyl)-2-fluoro-5-((4-oxo-7-(prop-1-yn-1-yl)-3,4-dihydrophthalazin-1-yl)methyl)benzamide]: the figures for the IC50 on His-GST-PARP7 and at PARP2 (read-out: PARP2 IC50) were below 0.05 µM and above 2 µM, respectively.

For `CC#Cc1ccc2c(=O)[nH]nc(Cc3ccc(F)c(C(=O)N(C)CCN(CC)c4ccc(C#N)cn4)c3)c2c1` [Example 198, N-(2-((5-Cyanopyridin-2-yl)(ethyl)amino)ethyl)-2-fluoro-N-methyl-5-((4-oxo-7-(prop-1-yn-1-yl)-3,4-dihydrophthalazin-1-yl)methyl)benzamide], the IC50 at His-GST-PARP7 is below 0.05 µM; at PARP2 (read-out: PARP2 IC50), above 2 µM.

These data come from patent publication US20260055079A1, “PHTHALAZINONE COMPOUNDS AS PARP7 INHIBITORS” (AZKARRA THERAPEUTICS, INC., priority 2022, published 2026).
